ChEMBL document CHEMBL6092199, “Naphthalen-1-ylethanamine-containing small molecule inhibitors of the papain-like protease of SARS-CoV-2” (Eur J Med Chem, 2024)
The source made the active and inactive calls. The rule behind the calls is not given here.

Tests used:
[1] = test system: SARS-CoV-2; test: Antiviral activity against SARS-CoV-2 JPN/TY/WK-521 infected in Vero E6 cells assessed as reduction in viral RNA level incubated for 3 days by RT-qPCR analysis; format: functional, organism-based; details: Severe acute respiratory syndrome coronavirus 2, JPN/TY/WK-521, Vero C1008, 72 h
[2] = Cytotoxicity against african green monkey Vero E6 cells incubated for 3 days by CCK8 assay; format: toxicity, cell-based, Vero C1008; details: chlorocebus sabaeus, time 3 day
[3] = target: T1, Replicase polyprotein 1ab (Severe acute respiratory syndrome coronavirus 2, UniProt P0DTD1); test: Inhibition of SARS-CoV-2 PL protease using (Z)-Arg-Leu-Arg-Gly-Gly-4-methyl-coumaryl-7-amide as substrate and varying concentration of […] by Lineweaver-burk plot analysis
[4] = Inhibition of SARS-CoV-1 PL protease using (Z)-Arg-Leu-Arg-Gly-Gly-4-methyl-coumaryl-7-amide as substrate and varying concentration of […] by Lineweaver-burk plot analysis; design: species or system Severe acute respiratory syndrome-related coronavirus
[5] = Inhibition of SARS-CoV-1 PL protease using varying concentration of (Z)-Arg-Leu-Arg-Gly-Gly-4-methyl-coumaryl-7-amide as substrate by Dixon plot analysis; design: species or system Severe acute respiratory syndrome-related coronavirus
[6] = Inhibition of SARS-CoV-1 PL protease using (Z)-Arg-Leu-Arg-Gly-Gly-4-methyl-coumaryl-7-amide as substrate measured every 150 sec for 1 hr by multimode reader assay; design: species or system Severe acute respiratory syndrome-related coronavirus
[7] = target: T1, Replicase polyprotein 1ab; test: Inhibition of SARS-CoV-2 PL protease using varying concentration of (Z)-Arg-Leu-Arg-Gly-Gly-4-methyl-coumaryl-7-amide as substrate by Dixon plot analysis
[8] = test system: SARS-CoV-2; test: Antiviral activity against SARS-CoV-2 JPN/TY/WK-521 infected in Vero E6 cells assessed as reduction in cytopathic effect at 1 to 100 uM pretreated with virus for 1 hr followed by viral washout and compound exposure for 3 days by immunocytochemistry analysis; format: functional, organism-based; details: Severe acute respiratory syndrome coronavirus 2, dose 1-100 µM, time 3.0 day
[9] = target: T1, Replicase polyprotein 1ab; test: Inhibition of SARS-CoV-2 PL protease using (Z)-Arg-Leu-Arg-Gly-Gly-4-methyl-coumaryl-7-amide as substrate measured every 150 sec for 1 hr by multimode reader assay

Row | SMILES | EC50 [1] [µM] | CC50 at 72 h [2] [µM] | other results
1 | Cc1ccc(CNC(=O)c2c(F)c(F)cc(F)c2F)cc1C(=O)N[C@H](C)c1cccc2ccccc12 | 44.8 | > 100 | 
2 | Cc1ccc(CNC(=O)C(N)=O)cc1C(=O)N[C@H](C)c1cccc2ccccc12 | > 100 | > 100 | 
3 | Cc1ccc(CNC(=O)OC(C)(C)C)cc1C(=O)N[C@H](C)c1cccc2cc3ccccc3cc12 | > 100 | > 100 | 
4 | Cc1ccc(CNC(=O)c2ccc(F)c(F)c2)cc1C(=O)N[C@H](C)c1cccc2cc3ccccc3cc12 | > 100 | > 100 | 
5 | Cc1ccc(CNC(=O)C(=O)O)cc1C(=O)N[C@H](C)c1cccc2cc3ccccc3cc12 | > 100 | > 100 | 
6 | Cc1ccc(CNC(=O)c2ccc(F)cc2C(F)(F)F)cc1C(=O)N[C@H](C)c1cccc2ccccc12 | > 100 | > 100 | 
7 | Cc1ccc(CNC(=O)c2ccc(F)c(F)c2)cc1C(=O)N[C@H](C)c1cccc2ccccc12 | 3.8 | > 100 | Ki [3]: 5.6 µM; Ki [4]: 0.16 µM; Ki [5]: 0.28 µM; IC50 [6]: 0.3 µM; Ki [7]: 5.3 µM; Activity [8]: Active
8 | Cc1ccc(CNC(=O)C(F)(F)F)cc1C(=O)N[C@H](C)c1cccc2ccccc12 | 30.3 | > 100 | 
9 | Cc1ccc(CNC(=O)c2c(F)cc(F)cc2F)cc1C(=O)N[C@H](C)c1cccc2ccccc12 | > 100 | > 100 | 
10 | Cc1ccc(CNC(=O)c2ccc(C(C)(C)C)cc2)cc1C(=O)N[C@H](C)c1cccc2ccccc12 | 7.3 | 58.2 | Ki [3]: 4.1 µM; Ki [4]: 0.32 µM; IC50 [9]: 3.1 µM; Ki [5]: 0.54 µM; IC50 [6]: 0.47 µM; Ki [7]: 4.6 µM
11 | CNCc1ccc(C)c(C(=O)N[C@H](C)c2cccc3ccccc23)c1 | 25.2 | > 100 | 
12 | Cc1ccccc1C(=O)NCc1ccc(C)c(C(=O)N[C@H](C)c2cccc3ccccc23)c1 | 15.1 | > 100 | 
13 | Cc1ccc(CNC(=O)c2cccc(F)c2F)cc1C(=O)N[C@H](C)c1cccc2ccccc12 | 52.3 | > 100 | 
14 | CC(=O)NCc1ccc(C)c(C(=O)N[C@H](C)c2cccc3ccccc23)c1 | > 100 | > 100 | 
15 | Cc1ccc(CNC(=O)c2cc(F)c(F)cc2F)cc1C(=O)N[C@H](C)c1cccc2ccccc12 | > 100 | > 100 | 
16 | Cc1ccc(CNC(=O)c2ccc([N+](=O)[O-])cc2)cc1C(=O)N[C@H](C)c1cccc2ccccc12 | 40.3 | > 100 | 
17 | Cc1ccc(CNC(=O)c2cccc(C(F)(F)F)c2)cc1C(=O)N[C@H](C)c1cccc2ccccc12 | 15.7 | > 100 | 
18 | Cc1ccc(CNC(=O)c2ccc([N+](=O)[O-])c(F)c2)cc1C(=O)N[C@H](C)c1cccc2ccccc12 | 76.9 | > 100 | 
19 | Cc1ccc(CNC(=O)c2ccccc2[N+](=O)[O-])cc1C(=O)N[C@H](C)c1cccc2ccccc12 | 18.3 | 55.6 | 
20 | Cc1ccc(CNC(=O)c2cccc(F)c2)cc1C(=O)N[C@H](C)c1cccc2ccccc12 | 57.4 | > 100 | 

Row | SMILES | EC50 [1] [µM] | CC50 at 72 h [2] [µM] | other results
21 | Cc1ccc(CNC(=O)C(C(F)(F)F)C(F)(F)F)cc1C(=O)N[C@H](C)c1cccc2ccccc12 | > 100 | > 100 | 
22 | Cc1ccc(CNC(=O)c2ccccc2C(F)(F)F)cc1C(=O)N[C@H](C)c1cccc2ccccc12 | 27.4 | > 100 | 
23 | Cc1ccc(CNC(=O)c2ccccc2F)cc1C(=O)N[C@H](C)c1cccc2ccccc12 | 13.2 | > 100 | 
24 | CCOC(=O)C(=O)NCc1ccc(C)c(C(=O)N[C@H](C)c2cccc3ccccc23)c1 | > 100 | > 100 | 
25 | Cc1ccc(CNC(=O)c2ccc(C(F)(F)F)cc2)cc1C(=O)N[C@H](C)c1cccc2ccccc12 | 18.7 | > 100 | 
26 | Cc1ccc(CNC(=O)c2ccc(F)cc2)cc1C(=O)N[C@H](C)c1cccc2ccccc12 | 25.7 | > 100 | 
27 | Cc1ccc(CN)cc1C(=O)N[C@H](C)c1cccc2ccccc12 | 15.5 | > 100 | 
28 | Cc1ccc(CNC(=O)c2ccc(C(F)(F)F)cc2F)cc1C(=O)N[C@H](C)c1cccc2ccccc12 | > 100 | > 100 | 
29 | Cc1ccc(CNC(=O)C(=O)O)cc1C(=O)N[C@H](C)c1cccc2ccccc12 | 2.7 | > 100 | Ki [3]: 4.4 µM; Ki [4]: 0.12 µM; IC50 [9]: 5.9 µM; Ki [5]: 0.18 µM; IC50 [6]: 0.46 µM; Ki [7]: 4.6 µM; Activity [8]: Active
30 | Cc1ccc(N)cc1C(=O)N[C@H](C)c1cccc2ccccc12 | 24.7 | > 100 | Ki [4]: 0.12 µM; Ki [5]: 0.29 µM; IC50 [6]: 0.05 µM
31 | Cc1ccc(CNC(=O)c2cc(C(F)(F)F)cc(C(F)(F)F)c2)cc1C(=O)N[C@H](C)c1cccc2ccccc12 | 72.8 | > 100 | 
32 | Cc1ccc(CNC(=O)c2cccc(C(F)(F)F)c2F)cc1C(=O)N[C@H](C)c1cccc2ccccc12 | 29.1 | > 100 | 
33 | Cc1ccc(CN)cc1C(=O)N[C@H](C)c1cccc2cc3ccccc3cc12 | 27.3 | 40.5 | 
34 | Cc1ccc(CNC(=O)c2ccc(C(F)(F)F)c(F)c2)cc1C(=O)N[C@H](C)c1cccc2ccccc12 | > 100 | > 100 | 
35 | Cc1ccc(CNC(=O)c2ccc(F)cc2F)cc1C(=O)N[C@H](C)c1cccc2ccccc12 | > 100 | > 100 | 
36 | Cc1ccc(CNC(=O)c2ccccc2)cc1C(=O)N[C@H](C)c1cccc2ccccc12 | 35.4 | > 100 | 
37 | Cc1ccc(CNC(=O)c2cccc(C(F)(F)F)c2C)cc1C(=O)N[C@H](C)c1cccc2ccccc12 | > 100 | > 100 | 
38 | Cc1ccc(CNC(=O)CC(F)(F)F)cc1C(=O)N[C@H](C)c1cccc2ccccc12 | 40.7 | > 100 | 
39 | Cc1cccc(C(=O)NCc2ccc(C)c(C(=O)N[C@H](C)c3cccc4ccccc34)c2)c1 | 44 | > 100 | 
40 | Cc1ccc(C(=O)NCc2ccc(C)c(C(=O)N[C@H](C)c3cccc4ccccc34)c2)cc1 | > 100 | > 100 | 
